Values quoted from earlier work, collected in patent US8993576B2, “6-(1H-indol-4-yl)-4-(5-{[4-1-methylethyl)-1-piperazinyl]methyl}-1,3-oxazol-2-yl)-1H-indazole hemi succinate salt, polymorphs and pharmaceutical compositions thereof” (Glaxo Group Limited, priority 2010, dated 2015).
Like-named read-outs stand apart in the source and are kept apart here.

Legend:
[1] = tested on: Class I PI3-kinases
[2] = tested on: neutrophils; conditions: treatment of neutrophils; Thelen et al. 1994
[3] = tested on: neutrophils
[4] = tested on: neutrophils; remark: listed apart in the source
[5] = target: CK2 protein kinase (Homo sapiens, UniProt P68400); conditions: read-out: IC50 on CK2 protein kinase
[6] = tested on: phospholipases

Sequence of CK2 protein kinase (P68400 whole entry): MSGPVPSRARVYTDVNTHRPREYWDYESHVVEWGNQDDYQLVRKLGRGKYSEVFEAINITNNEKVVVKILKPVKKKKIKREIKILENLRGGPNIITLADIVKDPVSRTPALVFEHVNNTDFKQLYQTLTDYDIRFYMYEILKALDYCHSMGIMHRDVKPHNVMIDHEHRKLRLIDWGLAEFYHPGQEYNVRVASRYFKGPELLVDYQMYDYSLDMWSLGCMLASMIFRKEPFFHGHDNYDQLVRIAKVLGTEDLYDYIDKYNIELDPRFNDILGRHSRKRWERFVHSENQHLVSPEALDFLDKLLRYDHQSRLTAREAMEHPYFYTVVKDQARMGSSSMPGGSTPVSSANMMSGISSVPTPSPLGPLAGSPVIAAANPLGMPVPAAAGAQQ

Structure (SMILES) | IC50 ([1]; each of the four Class I PI3-kinases, read-out: IC50 values against each of the various Class I PI3-kinases) [µM] | effect on fMLP-induced respiratory burst response [2] | effect on neutrophil migration [3] | effect on superoxide release [4] | IC50 ([1]; each of the Class I PI3-kinases, Fruman et al. 1998, read-out: IC50 values against each of these PI3-kinases) [µM] | IC50 [5] [µM] | inhibitory activity on phospholipases [6]
COC[C@H]1OC(=O)c2coc3c2[C@@]1(C)C1=C(C3=O)[C@@H]2CCC(=O)[C@@]2(C)C[C@H]1OC(C)=O [wortmannin] | 0.001 to 0.01 | prevents | block | block |  |  | 
O=c1cc(N2CCOCC2)oc2c(-c3ccccc3)cccc12 [LY294002] |  |  | block | block | 15 to 20 | 5 to 10 | some inhibitory activity
